Ten compounds from publication PMC10928712, “High Target Homology Does Not Guarantee Inhibition: Aminothiazoles Emerge as Inhibitors of Plasmodium falciparum” (ACS Infectious Diseases, 2024) can be followed below.

In one data set the test system is Hep G2 cells. In words: Hep G2 viability assay (counter screen). Type of data set: cell-based, human. To be noted: for IC50: Homo sapiens, HepG2, 48 h, cytotoxicity, 48 h. As for the experimental part: HepG2 cells (2 × 10^5 cells per well) were seeded in 24-well, flat-bottomed plates. Culturing of cells, incubations, and OD measurements were performed as described previously with small modifications.[58] 24 h after seeding the cells, the incubation was started by the addition of compounds in a final DMSO concentration of 1%. The metabolic activity of the living cell mass was determined after 48 h. At least three independent measurements were performed for each compound. The IC50 values were determined during logarithmic growth using GraphPad Prism software. All experiments were performed at least in triplicate, and data reported represent the mean ± SD.

In data set [1] the test system is P. falciparum 3D7. Briefly: Method III growth inhibition assay (HRP2-ELISA, 3 days), 3D7. The data set is classed as cell-based, Plasmodium falciparum.
For another data set, the system named is P. falciparum Dd2. In words: Method III growth inhibition assay (HRP2-ELISA, 3 days), Dd2. The data set is classed as cell-based, Plasmodium falciparum. To be noted: Plasmodium falciparum, DD2, chloroquine-resistant Dd2, method III. On the technique in general: In an ELISA, binding on a coated surface is turned into a signal by an enzyme label.
Data set [2] in a line: Metabolic stability in human liver S9 fraction. The data set is classed as in vitro ADME. To be noted: human, pooled liver S9 fraction, 1 μM compound. As for the experimental part:
For the evaluation of combined phase I and phase II metabolic stability, the compound (1 μM) was incubated with 1 mg/mL pooled liver S9 fraction (XenoTech), 2 mM NADPH, 1 mM UDPGA, 10 mM MgCl2, 5 mM GSH, and 0.1 mM PAPS at 37 °C for 0, 5, 15, 30, and 60 min. The metabolic stabilities of testosterone (1 μM), verapamil (1 μM), and propranolol (1 μM) were determined in parallel to confirm the enzymatic activity of the S9 fraction. The incubation was stopped by precipitation of S9 enzymes with two volumes of cold acetonitrile containing internal standard (150 nM diphenhydramine). Samples were stored on ice for 10 min, and precipitated protein was removed by centrifugation (15 min, 4 °C, 4000 rpm). The concentration of the remaining test compound at the different time points was analyzed by LC-MS/MS (TSQ Quantum Access MAX, Thermo Fisher, Dreieich, Germany) and used to determine half-life (t1/2).

Data set [3] can be described thus: Kinetic solubility determination. To be noted: PBS buffer and 2% DMSO; for solubility at 5 min: PBS with 2% DMSO, aqueous buffer, kinetic from dmso stock, read-out: Max. solubility. Type of data set: physicochemical. The procedure: The desired compounds were sequentially diluted in DMSO in a 96-well plate. 3 μL of each well was transferred into another 96-well plate and mixed with 147 μL of PBS. Plates were shaken for 5 min at 600 rpm at room temperature (r.t.), and the absorbance at 620 nm was measured. Absorbance values were normalized by blank subtraction and plotted using GraphPad Prism 8.4.2 (GraphPad Software, San Diego, California, USA). Solubility (S) was determined based on the First X value of AUC function using a threshold of 0.005.

Data set [4] deals with P. falciparum 3D7. In words: IDP rescue assay, P. falciparum 3D7. The data set is classed as cell-based. To be noted: Plasmodium falciparum. As for the experimental part:
(§1) Fidock (Columbia University). […] P. falciparum cultures were treated as described in method II. For IDP (Isoprenoids.com) rescue experiments, 125 μM IDP was added to the appropriate wells for the duration of the experiment. The well-described DXR inhibitor FSM was used as a positive control. IC50 values were calculated by nonlinear regression analysis using GraphPad Prism software. All experiments were performed at least in triplicate, and data reported represent the mean ± SD.

In data set [5] the test system is P. falciparum NF54. In words: IDP rescue assay, P. falciparum NF54. To be noted: Plasmodium falciparum. Type of data set: cell-based. The procedure: as §1
Data set [6] deals with P. falciparum NF54. Briefly: Method II growth-inhibition assay (PicoGreen, 3 days), NF54. The settings on record: Plasmodium falciparum; chloroquine-sensitive NF54, method II. Type of data set: cell-based. From the text:
(§2) Fidock (Columbia University).

For data set [7], the system named is P. falciparum 3D7. In words: Method II growth-inhibition assay (PicoGreen, 3 days), 3D7. The settings on record: Plasmodium falciparum; 3D7, method II; read-out: IC50 3D7-II. Type of data set: cell-based.
Excerpt: as §2

The subject of data set [8] is P. falciparum 3D7. In words: Method I growth-inhibition assay (SYBR Green I, 96 h). The data set is classed as cell-based. The settings on record: Plasmodium falciparum; 3D7, method I; nM; read-out: IC50 3D7-I. An excerpt:
Nonlinear regression as implemented in GraphPad Prism 7.00 (log(inhibitor) vs response – variable slope (four parameters)) was used to fit the measured data to interpolate the IC50 value from the curve. No specific model was applied. Data was preprocessed by normalizing according to the following formula: […]
eq 1: Fluorescence data normalization [drawing 2] where y is the fluorescence signal in each well, yminimum is the background fluorescence, and ymaximum is the highest measured fluorescence signal in the untreated wells. Drug concentrations (in μM) were transformed to the log(10)of the values. Means of each independent experiment were plotted as individual values, and the SD of the mean from the means shown as error bars. […] In case of transgenic cell lines, the built-in comparison Akaike’s information criteria (AICc) method was applied to the Log IC50s of the different cell lines. The test calculates a percentage probability of the simpler model “Log IC50 is the same for datasets” being correct. The test for homoscedasticity was performed to confirm if no weighting of values was appropriate.

The mark [9] stands for this setting: 3D7, method III (HRP2 assay), drc package of R, read-out: IC50 P. falciparum 3D7 (method III).
Setting [10] is: Plasmodium falciparum, 3D7, 3D7, method III (HRP2 assay), drc package of R, read-out: IC50 P. falciparum 3D7 (method III).
The mark [11] stands for this setting: Plasmodium falciparum, 3D7, table of compounds as SMILES with biological activity, strain not given, values match 3D7 method III, read-out: IC50.

Values after ≈ are worked out from the molar mass of the structure shown. Bounds are passed on as bounds.

As for `Oc1ccc(C(O)Cc2ccc(Cl)cc2)c(O)c1` (centres unmarked) [compound 13, 4-(2-(4-Chlorophenyl)-1-hydroxyethyl)benzene-1,3-diol], the IC50 (in general, the concentration needed to halve the response being measured) in the data set with Hep G2 cells was over 100000 nM; with P. falciparum 3D7 [1] (setting [9]), 10000 ± 2000 nM; in the data set on P. falciparum 3D7 [1] (setting [10]) it was 9900 ± 1700 nM; in the data set with P. falciparum Dd2, 28000 ± 13000 nM. In addition, in the data set with Hep G2 cells (at 100 μM), the “cytotoxicity towards Hep G2 cells” value is reported as “no cytotoxicity”. In data set [2], the half-life – broadly, the time needed for the level to fall by half in the phase considered – at 1 μM came out at 1.63 ± 0.167 h.
With `Nc1ccc(C/C(=N\O)c2ccc(O)cc2O)cc1` [compound 5, (E)-2-(4-Aminophenyl)-1-(2,4-dihydroxyphenyl)ethan-1-one oxime], the IC50 in the data set with P. falciparum 3D7 [1] (setting [10]) was over 111000 nM. The half-inhibitory concentration (IC50) with P. falciparum Dd2 was over 111000 nM. Moreover, in data set [3], the Max. solubility stood at 193.6 ± 95.7 µM and the solubility – broadly, the concentration that dissolves in the medium under given conditions – at 5 min was about 200 µM (≈ 51.7 µg/mL).
As for `Cc1nc(N)sc1-c1csc(Nc2ccc(Cl)cn2)n1` [compound 47], the IC50 in the data set with P. falciparum 3D7 [1] (setting [10]) is 1000 nM; with P. falciparum 3D7 [4] (3D7, 72 h, + IDP (125 μM)) it was 2200 nM; with P. falciparum 3D7 [4] (3D7, without IDP), 2000 ± 700 nM; with P. falciparum NF54 [5] (NF54, 72 h, + IDP (125 μM)), 1200 nM; in the data set with P. falciparum NF54 [5] (NF54, without IDP), 1600 ± 300 nM; with P. falciparum Dd2, 2000 nM. For the same compound, the figures for the IC50 with P. falciparum NF54 [6] and in the data set on P. falciparum 3D7 [7] were 2000 nM and 2000 ± 1000 nM, respectively.
As to `Nc1ccc(C(Cc2ccc(Cl)cc2)=NO)c(O)c1` [compound 10], the IC50 in the data set with Hep G2 cells is 50000 to 100000 nM; with P. falciparum 3D7 [1] (setting [10]), 38000 ± 11000 nM; with P. falciparum 3D7 [1] (setting [11]), 38200 nM; in the data set with P. falciparum Dd2, 24000 ± 4000 nM. Also, in data set [2], the half-life at 1 μM was 0.9333 ± 0.00667 h.
As for `COc1cc(O)ccc1/C(Cc1ccc(N)cc1)=N/O` [compound 4, (E)-2-(4-Aminophenyl)-1-(4-hydroxy-2-methoxyphenyl)ethan-1-one oxime], in the data set on P. falciparum 3D7 [1] (setting [10]), the IC50 was over 111000 nM. Moreover, the IC50 in the data set with P. falciparum Dd2 was 94000 ± 16000 nM. Besides, in data set [3], the Max. solubility came out at 202.6 ± 1.6 µM and the solubility at 5 min is about 200 µM (≈ 54.5 µg/mL).
As for `OCc1cn(Cc2ccc(Cl)c(Cl)c2)c2cccc(F)c12` [compound 33, (1-(3,4-Dichlorobenzyl)-4-fluoro-1H-indol-3-yl)methanol], the IC50 amounted to 790 ± 370 nM in the data set with Hep G2 cells; 2000 nM in the data set with P. falciparum 3D7 [1] (setting [9]); 3000 nM with P. falciparum 3D7 [1] (setting [10]); 2400 nM in the data set with P. falciparum 3D7 [1] (setting [11]); 3100 nM in the data set on P. falciparum 3D7 [4] (3D7, 72 h, + IDP (125 μM)); 2700 ± 300 nM in the data set on P. falciparum 3D7 [4] (3D7, without IDP). For the same compound, the IC50 with P. falciparum NF54 [5] (NF54, 72 h, + IDP (125 μM)) came to 2200 nM; in the data set with P. falciparum NF54 [5] (NF54, without IDP) it was 2400 ± 600 nM; in the data set with P. falciparum Dd2, 3000 nM; in the data set on P. falciparum NF54 [6] it was 3000 ± 1000 nM; in the data set with P. falciparum 3D7 [7] it was 3000 nM.
Take `COc1ccc(/C(Cc2ccc(N)cc2)=N/O)c(OC)c1` [compound 6, (E)-2-(4-Aminophenyl)-1-(2,4-dimethoxyphenyl)ethan-1-one oxime]: the 50% inhibitory concentration (IC50) in the data set on P. falciparum 3D7 [1] (setting [10]) and in the data set on P. falciparum Dd2 was over 111000 nM each time. Further, the solubility at 5 min in [3] came to 119 ± 27.4 µM (≈ 34.2 µg/mL).
On to `Cc1ccc(Nc2nc(-c3ccccn3)cs2)cc1C` [compound 46, N-(3,4-Dimethylphenyl)-4-(pyridin-2-yl)thiazol-2-amine], for which the IC50 in the data set with P. falciparum 3D7 [1] (setting [10]) was 2000 ± 1000 nM; in the data set with P. falciparum 3D7 [1] (setting [11]) it was 1500 nM; in the data set on P. falciparum 3D7 [4] (3D7, 72 h, + IDP (125 μM)), 2800 nM; with P. falciparum 3D7 [4] (3D7, without IDP), 2300 ± 400 nM; in the data set on P. falciparum NF54 [5] (NF54, 72 h, + IDP (125 μM)), 1200 nM; in the data set on P. falciparum NF54 [5] (NF54, without IDP), 2100 ± 800 nM. Besides, the IC50 with P. falciparum Dd2 stood at 2000 nM; in the data set on P. falciparum NF54 [6] it was 2000 ± 1000 nM; in the data set on P. falciparum 3D7 [7], 2000 nM.
With `O=CN(O)CCCP(=O)(O)O` [FSM, fosmidomycin, reference compound], the IC50 worked out at 37400 ± 18200 nM in the data set on P. falciparum 3D7 [4] (3D7, 72 h, + IDP (125 μM)); 900 ± 400 nM with P. falciparum 3D7 [4] (3D7, without IDP); 7800 ± 300 nM in the data set with P. falciparum NF54 [5] (NF54, 72 h, + IDP (125 μM)); 900 ± 500 nM in the data set on P. falciparum NF54 [5] (NF54, without IDP); 700 ± 300 nM with P. falciparum NF54 [6]; 900 ± 200 nM in the data set with P. falciparum 3D7 [7].
As for `CCN(CC)CCCC(C)Nc1ccnc2cc(Cl)ccc12` (centres unmarked) [Chloroquine, chloroquine diphosphate, reference compound], the IC50 in the data set with P. falciparum 3D7 [1] (Plasmodium falciparum, 3D7, 3D7, method III, nM, read-out: IC50 3D7-III) is 2.8 ± 0.7 nM; in the data set on P. falciparum Dd2 it was 190 ± 30 nM; with P. falciparum 3D7 [8], 17.8 ± 3.1 nM.
